Experimental data taken from patent US10221139B2, “Inhibitors of histone demethylases” (Gilead Sciences, Inc., priority 2012, dated 2019).
pIC50: −log10 of the molar value.

Columns and labels:
Type in all cases: biochemical
[1] = molecular target: T1, GASC1 (KDM4C, JMJD2C) (Homo sapiens, UniProt Q9H3R0); experiment: Histone lysine demethylase AlphaLISA assay, GASC1; conditions: substrate BK9M3
T1 construct: 1-349; host or cells: E. coli
T1 sequence (Q9H3R0 1-349): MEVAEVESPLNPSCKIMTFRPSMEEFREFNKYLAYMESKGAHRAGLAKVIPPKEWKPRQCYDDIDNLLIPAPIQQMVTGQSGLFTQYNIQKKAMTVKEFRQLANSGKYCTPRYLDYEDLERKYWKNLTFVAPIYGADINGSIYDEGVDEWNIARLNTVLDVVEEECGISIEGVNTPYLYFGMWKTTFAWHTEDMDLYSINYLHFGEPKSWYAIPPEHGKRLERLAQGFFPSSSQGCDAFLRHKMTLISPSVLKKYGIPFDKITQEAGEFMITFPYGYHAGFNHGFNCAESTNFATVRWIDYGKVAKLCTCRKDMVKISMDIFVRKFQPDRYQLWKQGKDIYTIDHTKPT
How it was run: (§1)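 Per-enzyme reaction conditions apply; each enzyme sees compound for 10 min ahead of substrate addition. Bead-based AlphaLISA detection at room temperature, protected from light, gives the IC50.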

[2] = molecular target: T2, JARID1C (KDM5C) (Homo sapiens, UniProt P41229); experiment: Histone lysine demethylase AlphaLISA assay, JARID1C; conditions: substrate H3K4M3B
T2 construct: 2-1560; purchased BPS; host or cells: Bac (baculovirus)
T2 sequence (P41229 2-1560): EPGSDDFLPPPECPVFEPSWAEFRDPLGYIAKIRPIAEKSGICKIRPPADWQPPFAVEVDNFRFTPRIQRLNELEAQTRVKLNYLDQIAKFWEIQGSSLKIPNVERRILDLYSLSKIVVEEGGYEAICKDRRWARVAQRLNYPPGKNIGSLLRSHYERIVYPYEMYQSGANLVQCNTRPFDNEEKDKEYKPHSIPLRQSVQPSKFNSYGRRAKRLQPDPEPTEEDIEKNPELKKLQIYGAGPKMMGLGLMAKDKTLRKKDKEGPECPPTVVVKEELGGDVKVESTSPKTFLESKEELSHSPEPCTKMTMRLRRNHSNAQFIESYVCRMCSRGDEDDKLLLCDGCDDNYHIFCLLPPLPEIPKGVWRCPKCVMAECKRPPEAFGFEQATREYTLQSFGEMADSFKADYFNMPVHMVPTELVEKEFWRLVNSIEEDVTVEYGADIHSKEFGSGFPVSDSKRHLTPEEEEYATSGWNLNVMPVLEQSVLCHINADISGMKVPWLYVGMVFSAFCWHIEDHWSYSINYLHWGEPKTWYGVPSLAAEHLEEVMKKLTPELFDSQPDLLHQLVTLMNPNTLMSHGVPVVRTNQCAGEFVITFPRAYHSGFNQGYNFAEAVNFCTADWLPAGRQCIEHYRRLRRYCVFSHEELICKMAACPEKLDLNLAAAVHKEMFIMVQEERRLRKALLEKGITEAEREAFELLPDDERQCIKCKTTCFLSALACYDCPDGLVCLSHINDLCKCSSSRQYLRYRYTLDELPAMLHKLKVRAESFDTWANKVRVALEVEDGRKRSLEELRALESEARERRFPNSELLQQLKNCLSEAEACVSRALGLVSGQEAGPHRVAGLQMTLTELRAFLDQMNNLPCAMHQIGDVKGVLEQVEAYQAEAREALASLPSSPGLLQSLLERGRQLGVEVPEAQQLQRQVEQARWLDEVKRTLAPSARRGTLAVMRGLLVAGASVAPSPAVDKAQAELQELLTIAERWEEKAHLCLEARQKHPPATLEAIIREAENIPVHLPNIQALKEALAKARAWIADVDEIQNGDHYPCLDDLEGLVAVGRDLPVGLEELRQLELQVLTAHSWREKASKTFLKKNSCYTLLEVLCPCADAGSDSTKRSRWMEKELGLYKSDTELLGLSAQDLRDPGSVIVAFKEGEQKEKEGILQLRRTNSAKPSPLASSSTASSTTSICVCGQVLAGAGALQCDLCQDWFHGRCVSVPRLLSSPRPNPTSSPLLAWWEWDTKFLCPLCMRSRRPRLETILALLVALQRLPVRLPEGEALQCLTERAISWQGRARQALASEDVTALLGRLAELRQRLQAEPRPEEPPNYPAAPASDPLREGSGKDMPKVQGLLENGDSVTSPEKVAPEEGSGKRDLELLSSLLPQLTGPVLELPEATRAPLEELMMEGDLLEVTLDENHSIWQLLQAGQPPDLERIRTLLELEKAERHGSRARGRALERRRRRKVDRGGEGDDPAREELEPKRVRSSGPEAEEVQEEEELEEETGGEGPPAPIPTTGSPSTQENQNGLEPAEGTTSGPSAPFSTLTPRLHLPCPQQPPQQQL
Procedure: (§2) Example 2: Histone Lysine Demethylase AlphaLISA Assays for IC50 Value Determination
(§3) Assays are performed analogously to the protocol described by Perkin Elmer (Roy et al. Perkin Elmer Technical Note: AlphaLISA #12, April 2011).
(§4) Enzymes are dissolved in enzyme buffer and incubated for 10 min before 5 μL is added to 5 μL 3% DMSO solutions of compounds in enzyme buffer. Incubated for another 10 minutes, before 5 μL substrate solution is added and the reaction mixture is incubated at room temperature for the given period. 10 μL acceptor beads, suspended at given dilutions in Epigenetic Buffer (Perkin Elmer AL008) from stock, are added and the suspension is incubated 60 minutes in the dark at room temperature, before 10 μL suspension (at the given dilutions in Epigenetic Buffer) of streptavidin donor beads (Perkin Elmer 6760002) in Epigenetic Buffer is added. After incubation at room temperature in the dark the plates are read. Reaction conditions are seen in Table 2b.

[3] = molecular target: T3, JMJD2B (KDM4B) (Homo sapiens, UniProt O94953); experiment: Histone lysine demethylase AlphaLISA assay, JMJD2B; conditions: substrate BK9M3, read-out: JMUD2B IC50
T3 construct: 2-500; purchased BPS; host or cells: Bac (baculovirus)
T3 sequence (O94953 2-500): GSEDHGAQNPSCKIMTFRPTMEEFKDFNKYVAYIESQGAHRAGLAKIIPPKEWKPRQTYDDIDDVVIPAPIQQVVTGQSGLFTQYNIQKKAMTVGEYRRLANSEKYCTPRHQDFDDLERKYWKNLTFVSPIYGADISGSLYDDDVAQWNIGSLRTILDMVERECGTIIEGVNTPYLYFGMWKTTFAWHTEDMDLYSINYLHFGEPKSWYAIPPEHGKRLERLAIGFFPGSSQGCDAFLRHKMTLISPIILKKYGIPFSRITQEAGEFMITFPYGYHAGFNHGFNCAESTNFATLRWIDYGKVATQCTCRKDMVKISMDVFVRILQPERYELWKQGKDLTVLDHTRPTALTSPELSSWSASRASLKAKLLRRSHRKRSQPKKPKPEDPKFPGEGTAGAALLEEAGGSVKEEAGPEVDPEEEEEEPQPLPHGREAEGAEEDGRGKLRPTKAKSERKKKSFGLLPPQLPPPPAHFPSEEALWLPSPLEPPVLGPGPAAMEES
Procedure: as §2, §3, §4

[4] = molecular target: T4, JMJD3 (KDM6B) (Homo sapiens, UniProt O15054); experiment: Histone lysine demethylase AlphaLISA assay, JMJD3; conditions: substrate BK27M3
T4 construct: 1043-end; purchased BPS; host or cells: Bac (baculovirus)
T4 sequence (O15054 1043-1682 isoform O15054-1 limits assumed): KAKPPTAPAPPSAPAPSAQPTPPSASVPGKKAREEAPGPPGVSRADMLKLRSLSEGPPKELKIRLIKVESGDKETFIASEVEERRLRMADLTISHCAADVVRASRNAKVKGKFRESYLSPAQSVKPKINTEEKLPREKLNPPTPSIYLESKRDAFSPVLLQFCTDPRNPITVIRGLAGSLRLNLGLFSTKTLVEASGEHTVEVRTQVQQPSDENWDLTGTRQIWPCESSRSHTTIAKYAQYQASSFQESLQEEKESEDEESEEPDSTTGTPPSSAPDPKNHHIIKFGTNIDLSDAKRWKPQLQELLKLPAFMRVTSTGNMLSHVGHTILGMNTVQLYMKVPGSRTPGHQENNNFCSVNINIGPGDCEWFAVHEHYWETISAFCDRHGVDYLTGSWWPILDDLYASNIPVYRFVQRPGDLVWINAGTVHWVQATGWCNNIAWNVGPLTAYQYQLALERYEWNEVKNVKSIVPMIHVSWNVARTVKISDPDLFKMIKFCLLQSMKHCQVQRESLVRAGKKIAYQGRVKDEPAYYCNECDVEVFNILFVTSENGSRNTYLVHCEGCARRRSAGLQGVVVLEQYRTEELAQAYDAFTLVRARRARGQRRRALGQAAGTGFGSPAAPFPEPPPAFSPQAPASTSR
Procedure: as §2, §3, §4

[5] = molecular target: T5, PHF8 (KDM7) (Homo sapiens, UniProt Q9UPP1); experiment: Histone lysine demethylase AlphaLISA assay, PHF8; conditions: substrate BK9M2
T5 construct: KDM7 (PHF8); BRIC; 1-1322; Bac
T5 sequence (Q9UPP1 37-477 limits assumed): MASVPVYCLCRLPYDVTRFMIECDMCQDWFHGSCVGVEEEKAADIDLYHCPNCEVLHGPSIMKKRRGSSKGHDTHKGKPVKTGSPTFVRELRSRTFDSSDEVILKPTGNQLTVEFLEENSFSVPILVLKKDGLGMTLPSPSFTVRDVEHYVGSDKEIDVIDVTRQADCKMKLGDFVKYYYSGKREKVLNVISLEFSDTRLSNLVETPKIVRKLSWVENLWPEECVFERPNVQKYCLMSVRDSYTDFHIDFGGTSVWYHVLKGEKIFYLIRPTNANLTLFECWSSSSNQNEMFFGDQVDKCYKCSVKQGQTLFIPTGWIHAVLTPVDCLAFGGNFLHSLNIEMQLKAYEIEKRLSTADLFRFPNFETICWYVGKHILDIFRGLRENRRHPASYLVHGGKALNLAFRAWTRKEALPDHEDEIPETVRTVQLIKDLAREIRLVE
Procedure: as §2, §3, §4

[6] = molecular target: T6, PLU1 (KDM5B) (Homo sapiens, UniProt Q9UGL1); experiment: Histone lysine demethylase AlphaLISA assay, PLU1; conditions: substrate H3K4M3B
T6 construct: 1-809; host or cells: E. coli
T6 sequence (Q9UGL1 1-809): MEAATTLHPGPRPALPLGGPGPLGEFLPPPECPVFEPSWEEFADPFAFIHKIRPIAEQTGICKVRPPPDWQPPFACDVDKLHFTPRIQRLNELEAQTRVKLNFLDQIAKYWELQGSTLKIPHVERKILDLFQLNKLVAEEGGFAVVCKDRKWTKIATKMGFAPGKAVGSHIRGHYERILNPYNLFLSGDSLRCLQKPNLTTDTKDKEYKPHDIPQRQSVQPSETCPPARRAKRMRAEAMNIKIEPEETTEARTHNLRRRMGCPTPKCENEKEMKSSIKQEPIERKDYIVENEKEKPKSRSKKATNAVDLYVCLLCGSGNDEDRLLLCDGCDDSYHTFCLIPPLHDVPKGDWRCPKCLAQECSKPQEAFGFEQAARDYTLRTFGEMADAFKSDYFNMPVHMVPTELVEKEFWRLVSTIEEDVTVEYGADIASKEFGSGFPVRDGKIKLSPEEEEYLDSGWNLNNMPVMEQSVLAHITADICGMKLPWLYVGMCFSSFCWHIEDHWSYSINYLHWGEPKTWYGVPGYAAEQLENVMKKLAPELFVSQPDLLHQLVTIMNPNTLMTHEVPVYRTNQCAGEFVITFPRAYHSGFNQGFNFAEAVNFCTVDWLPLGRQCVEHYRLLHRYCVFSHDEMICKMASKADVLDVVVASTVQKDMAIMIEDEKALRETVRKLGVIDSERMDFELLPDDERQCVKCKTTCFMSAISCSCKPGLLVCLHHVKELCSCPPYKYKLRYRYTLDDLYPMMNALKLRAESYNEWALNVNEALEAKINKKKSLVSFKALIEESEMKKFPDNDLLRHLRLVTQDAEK
How it was run: as §1

2-({[(1R)-2-hydroxy-1-{methyl[3-(1-methyl-1H-imidazol-2-yl)propyl]carbamoyl}ethyl]amino}methyl)pyridine-4-carboxylic acid [#37]
pIC50 [1]: > 7.00 | pIC50 [2]: 6.00 to 7.00 | pIC50 [3]: > 7.00 | pIC50 [4]: ≤ 6.00 | pIC50 [5]: ≤ 6.00

O=C(O)c1ccnc(CNCC(=O)N2CCCC2)c1 [#13, 2-({[2-oxo-2-(pyrrolidin-1-yl)ethyl]amino}methyl)pyridine-4-carboxylic acid]
pIC50 [1]: > 7.00 | pIC50 [2]: > 7.00 | pIC50 [3]: > 7.00 | pIC50 [4]: ≤ 6.00 | pIC50 [5]: 6.00 to 7.00 | pIC50 [6]: > 7.00

CCCCN(C)C(=O)CNCc1cc(C(=O)O)ccn1 [#14, 2-[({[butyl(methyl)carbamoyl]methyl}amino)methyl]pyridine-4-carboxylic acid]
pIC50 [1]: > 7.00 | pIC50 [2]: > 7.00 | pIC50 [3]: > 7.00 | pIC50 [4]: ≤ 6.00 | pIC50 [5]: 6.00 to 7.00 | pIC50 [6]: > 7.00

COc1ccccc1CN1CCC(NC(=O)CNCc2cc(C(=O)O)ccn2)CC1 [#29, 2-({[({1-[(2-methoxyphenyl)methyl]piperidin-4-yl}carbamoyl)methyl]amino}methyl)pyridine-4-carboxylic acid]
pIC50 [1]: > 7.00 | pIC50 [2]: > 7.00 | pIC50 [3]: > 7.00 | pIC50 [5]: > 7.00 | pIC50 [6]: > 7.00

CCCCN1CCCC1CCNCc1cc(C(=O)O)ccn1 (stereo not shown) [#34, 2-({[2-(1-butylpyrrolidin-2-yl)ethyl]amino}methyl)pyridine-4-carboxylic acid]
pIC50 [1]: > 7.00 | pIC50 [2]: > 7.00 | pIC50 [3]: > 7.00 | pIC50 [4]: ≤ 6.00 | pIC50 [5]: ≤ 6.00 | pIC50 [6]: > 7.00

CC(C)=CCCC(C)CCN1CCC(NC(=O)CNCc2cc(C(=O)O)ccn2)C1 (stereo not shown) [#35, 2-{[({[1-(3,7-dimethyloct-6-en-1-yl)pyrrolidin-3-yl]carbamoyl}methyl)amino]methyl}pyridine-4-carboxylic acid]
pIC50 [1]: > 7.00 | pIC50 [2]: > 7.00 | pIC50 [3]: > 7.00 | pIC50 [4]: 6.00 to 7.00 | pIC50 [5]: 6.00 to 7.00 | pIC50 [6]: > 7.00

CCN(CCN(C)C)C(=O)CNCc1cc(C(=O)O)ccn1 [#49, 2-{[({[2-(dimethylamino)ethyl](ethyl)carbamoyl}methyl)amino]methyl}pyridine-4-carboxylic acid]
pIC50 [1]: > 7.00 | pIC50 [2]: > 7.00 | pIC50 [3]: > 7.00 | pIC50 [4]: ≤ 6.00 | pIC50 [5]: 6.00 to 7.00 | pIC50 [6]: > 7.00
